Measured values from the supplement of paper PMC10307832.

Legend:
Assay in all cases: relative viability (nuclei count vs DMSO), 5 days (fraction); higher = more cells survive
[1] = compound: CCOC(=O)CCNc1cc(N2CCc3ccccc3CC2)nc(-c2ccccn2)n1 [GSK-J4]
Outline: (§1)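 Five library-drug doses, separated by factors of √10, were pinned into 1536-well plates holding lung cancer cell lines after an overnight stay at 37 °C. Cells were fixed, permeabilised and Hoechst-stained in one step after 5 days without medium change, then imaged at 4×. Viability compares treated-well with vehicle-well nuclei, counted in MetaXpress, as a median across plates. Passing plates had control CV below 25% and at least one doubling.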

[2] = compound: CN1CCC(CC1)OC2=CC(=C(C=C2)NC3=NC=C4C(=N3)N(C(=O)N4C)C5CCCC5)OC [AZ3146]
Outline: as §1

[3] = compound: CCOC(=O)CCNc1cc(N2CCc3ccccc3CC2)nc(-c2ccccn2)n1 [GSK-J4] + CC1(C)CCC(c2ccc(Cl)cc2)=C(CN2CCN(c3ccc(C(=O)NS(=O)(=O)c4ccc(N[C@H](CCN5CCOCC5)CSc5ccccc5)c(S(=O)(=O)C(F)(F)F)c4)cc3)CC2)C1 [Navitoclax] (partner 0.5 µM)
Outline: (§2)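 Five library-drug doses in √10 steps were combined with a fixed anchor-drug dose, or a single drug was given alone, by pin tool to lung cancer cell lines in 1536-well plates the day after seeding. Nuclei were stained and counted after 5 days. Relative viability is the nuclei count in treated wells over that in vehicle wells, taken as the median of duplicate plates.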

[4] = compound: CN1CCC(CC1)OC2=CC(=C(C=C2)NC3=NC=C4C(=N3)N(C(=O)N4C)C5CCCC5)OC [AZ3146] + Cc1cc(Nc2cc(N3CCN(C)CC3)nc(Sc3ccc(NC(=O)C4CC4)cc3)n2)n[nH]1 [Tozasertib] (partner 0.1 µM)
Outline: as §2

## UMC-11
[1]; 0.5 µM
  relative viability: 0.96
[1]; 1.581 µM
  relative viability: 0.735
[1]; 5 µM
  relative viability: 0.741
[1]; 15.81 µM
  relative viability: 1.01
[1]; 50 µM
  relative viability: 0.551
[2]; 0.08 µM
  relative viability: 0.863
[2]; 0.253 µM
  relative viability: 0.985
[2]; 0.8 µM
  relative viability: 0.971
[2]; 2.53 µM
  relative viability: 0.898
[2]; 8 µM
  relative viability: 0.624
[3]; first compound 0.5 µM
  relative viability: 0.332
[3]; first compound 1.581 µM
  relative viability: 0.233
[3]; first compound 5 µM
  relative viability: 0.341
[3]; first compound 15.81 µM
  relative viability: 0.305
[3]; first compound 50 µM
  relative viability: 0.179
[4]; first compound 0.08 µM
  relative viability: 0.177
[4]; first compound 0.253 µM
  relative viability: 0.199
[4]; first compound 0.8 µM
  relative viability: 0.204
[4]; first compound 2.53 µM
  relative viability: 0.177
[4]; first compound 8 µM
  relative viability: 0.183
